Here are results for two compounds from PMC8213057, “Targeting ALK2: An Open Science Approach to Developing Therapeutics for the Treatment of Diffuse Intrinsic Pontine Glioma” (Journal of Medicinal Chemistry, 2020).

Several values for one entry are separate records, joined by “and”; a condition that tells them apart may be missing. Equal entries are not always repeated.

One assay addresses CAMK2d (Homo sapiens, UniProt Q13557). Description: biochemical. To be noted: read-out: % enzyme activity, 1 μM; Run 1, Run 2.
Another assay deals with T1, BRSK1 (Homo sapiens, UniProt Q8TDC3).
T1 sequence (Q8TDC3 1-778): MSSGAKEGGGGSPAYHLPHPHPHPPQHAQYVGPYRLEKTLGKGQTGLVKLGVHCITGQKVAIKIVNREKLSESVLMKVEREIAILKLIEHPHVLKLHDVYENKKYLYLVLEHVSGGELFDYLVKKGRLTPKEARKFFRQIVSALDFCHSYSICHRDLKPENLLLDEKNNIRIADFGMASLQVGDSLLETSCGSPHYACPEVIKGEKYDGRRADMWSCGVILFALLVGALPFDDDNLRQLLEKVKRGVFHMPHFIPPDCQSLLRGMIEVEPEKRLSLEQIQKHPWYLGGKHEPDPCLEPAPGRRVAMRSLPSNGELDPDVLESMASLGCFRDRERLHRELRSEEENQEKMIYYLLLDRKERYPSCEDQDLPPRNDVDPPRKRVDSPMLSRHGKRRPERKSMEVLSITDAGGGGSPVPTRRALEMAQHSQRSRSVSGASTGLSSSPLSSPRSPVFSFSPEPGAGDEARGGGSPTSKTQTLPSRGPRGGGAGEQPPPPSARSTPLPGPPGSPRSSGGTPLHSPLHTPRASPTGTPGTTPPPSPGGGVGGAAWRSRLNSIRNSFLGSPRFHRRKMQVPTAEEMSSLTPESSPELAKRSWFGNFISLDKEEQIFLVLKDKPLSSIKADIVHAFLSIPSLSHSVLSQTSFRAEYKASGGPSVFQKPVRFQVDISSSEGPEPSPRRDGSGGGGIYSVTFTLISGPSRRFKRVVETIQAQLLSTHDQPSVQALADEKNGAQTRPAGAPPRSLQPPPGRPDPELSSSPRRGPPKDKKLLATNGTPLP
The note with it: 1 μM; Run 1, Run 2.

A further assay deals with SBK1 (Homo sapiens, UniProt Q52WX2). In words: biochemical. The note with it: read-out: % enzyme activity, 1 μM; Run 1, Run 2.
In the next assay the target is CDK3/cyclin E (Homo sapiens, UniProt Q00526). Description: biochemical. To be noted: read-out: % enzyme activity, 1 μM; Run 1, Run 2.
For another assay, the target named is MYO3A (Homo sapiens, UniProt Q8NEV4). Description: biochemical. To be noted: read-out: % enzyme activity, 1 μM; Run 1, Run 2.
For another assay, the target named is T2, MYLK4 (Homo sapiens, UniProt Q86YV6).
T2 sequence (Q86YV6 1-388): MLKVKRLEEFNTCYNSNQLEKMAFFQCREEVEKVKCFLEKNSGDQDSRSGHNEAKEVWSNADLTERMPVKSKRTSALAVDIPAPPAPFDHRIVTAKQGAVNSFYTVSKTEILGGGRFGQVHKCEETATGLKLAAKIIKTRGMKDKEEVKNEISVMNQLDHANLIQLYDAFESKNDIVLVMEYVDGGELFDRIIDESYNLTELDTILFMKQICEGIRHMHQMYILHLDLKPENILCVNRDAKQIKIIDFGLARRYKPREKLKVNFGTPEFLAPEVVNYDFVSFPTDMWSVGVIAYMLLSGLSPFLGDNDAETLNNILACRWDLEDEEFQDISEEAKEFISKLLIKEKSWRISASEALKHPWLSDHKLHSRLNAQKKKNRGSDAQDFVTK
The note with it: 1 μM; Run 1, Run 2.

Another assay addresses IRAK1 (Homo sapiens, UniProt P51617). The note with it: 1 μM; Run 1, Run 2.
A further assay has as its target MLK3/MAP3K11 (Homo sapiens, UniProt Q16584). To be noted: 1 μM; Run 1, Run 2.
The target in the next assay is IRR/INSRR (Homo sapiens, UniProt P14616). To be noted: 1 μM; Run 1, Run 2.
Another assay addresses T3, VRK1 (Homo sapiens, UniProt Q99986).
T3 sequence (Q99986 1-396): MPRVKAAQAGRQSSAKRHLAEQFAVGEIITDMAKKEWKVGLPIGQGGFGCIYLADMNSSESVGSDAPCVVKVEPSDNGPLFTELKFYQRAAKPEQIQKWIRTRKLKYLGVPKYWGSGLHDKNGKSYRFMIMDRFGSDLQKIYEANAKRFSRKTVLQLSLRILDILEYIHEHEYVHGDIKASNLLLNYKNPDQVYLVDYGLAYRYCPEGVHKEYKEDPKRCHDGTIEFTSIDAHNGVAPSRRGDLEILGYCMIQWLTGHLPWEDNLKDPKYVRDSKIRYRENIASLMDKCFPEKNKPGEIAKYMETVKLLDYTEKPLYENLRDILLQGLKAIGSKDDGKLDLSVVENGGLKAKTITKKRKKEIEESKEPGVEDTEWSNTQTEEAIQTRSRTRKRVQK
The note with it: 1 μM; Run 1, Run 2.

The target in the next assay is STK21/CIT (Homo sapiens, UniProt O14578). To be noted: 1 μM; Run 1, Run 2.
The next assay deals with SSTK/TSSK6 (Homo sapiens, UniProt Q9BXA6). In words: biochemical. To be noted: read-out: % enzyme activity, 1 μM; Run 1, Run 2.
SSTK/TSSK6, sequence (Q9BXA6 whole entry): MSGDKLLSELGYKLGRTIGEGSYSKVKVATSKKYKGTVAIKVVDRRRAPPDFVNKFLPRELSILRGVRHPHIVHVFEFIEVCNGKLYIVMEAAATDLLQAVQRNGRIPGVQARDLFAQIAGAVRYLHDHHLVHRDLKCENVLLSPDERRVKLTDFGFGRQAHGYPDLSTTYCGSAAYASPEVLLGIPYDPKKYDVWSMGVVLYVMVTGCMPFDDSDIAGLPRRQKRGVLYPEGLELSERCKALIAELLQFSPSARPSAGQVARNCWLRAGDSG

MYO3A, sequence (Q8NEV4 whole entry): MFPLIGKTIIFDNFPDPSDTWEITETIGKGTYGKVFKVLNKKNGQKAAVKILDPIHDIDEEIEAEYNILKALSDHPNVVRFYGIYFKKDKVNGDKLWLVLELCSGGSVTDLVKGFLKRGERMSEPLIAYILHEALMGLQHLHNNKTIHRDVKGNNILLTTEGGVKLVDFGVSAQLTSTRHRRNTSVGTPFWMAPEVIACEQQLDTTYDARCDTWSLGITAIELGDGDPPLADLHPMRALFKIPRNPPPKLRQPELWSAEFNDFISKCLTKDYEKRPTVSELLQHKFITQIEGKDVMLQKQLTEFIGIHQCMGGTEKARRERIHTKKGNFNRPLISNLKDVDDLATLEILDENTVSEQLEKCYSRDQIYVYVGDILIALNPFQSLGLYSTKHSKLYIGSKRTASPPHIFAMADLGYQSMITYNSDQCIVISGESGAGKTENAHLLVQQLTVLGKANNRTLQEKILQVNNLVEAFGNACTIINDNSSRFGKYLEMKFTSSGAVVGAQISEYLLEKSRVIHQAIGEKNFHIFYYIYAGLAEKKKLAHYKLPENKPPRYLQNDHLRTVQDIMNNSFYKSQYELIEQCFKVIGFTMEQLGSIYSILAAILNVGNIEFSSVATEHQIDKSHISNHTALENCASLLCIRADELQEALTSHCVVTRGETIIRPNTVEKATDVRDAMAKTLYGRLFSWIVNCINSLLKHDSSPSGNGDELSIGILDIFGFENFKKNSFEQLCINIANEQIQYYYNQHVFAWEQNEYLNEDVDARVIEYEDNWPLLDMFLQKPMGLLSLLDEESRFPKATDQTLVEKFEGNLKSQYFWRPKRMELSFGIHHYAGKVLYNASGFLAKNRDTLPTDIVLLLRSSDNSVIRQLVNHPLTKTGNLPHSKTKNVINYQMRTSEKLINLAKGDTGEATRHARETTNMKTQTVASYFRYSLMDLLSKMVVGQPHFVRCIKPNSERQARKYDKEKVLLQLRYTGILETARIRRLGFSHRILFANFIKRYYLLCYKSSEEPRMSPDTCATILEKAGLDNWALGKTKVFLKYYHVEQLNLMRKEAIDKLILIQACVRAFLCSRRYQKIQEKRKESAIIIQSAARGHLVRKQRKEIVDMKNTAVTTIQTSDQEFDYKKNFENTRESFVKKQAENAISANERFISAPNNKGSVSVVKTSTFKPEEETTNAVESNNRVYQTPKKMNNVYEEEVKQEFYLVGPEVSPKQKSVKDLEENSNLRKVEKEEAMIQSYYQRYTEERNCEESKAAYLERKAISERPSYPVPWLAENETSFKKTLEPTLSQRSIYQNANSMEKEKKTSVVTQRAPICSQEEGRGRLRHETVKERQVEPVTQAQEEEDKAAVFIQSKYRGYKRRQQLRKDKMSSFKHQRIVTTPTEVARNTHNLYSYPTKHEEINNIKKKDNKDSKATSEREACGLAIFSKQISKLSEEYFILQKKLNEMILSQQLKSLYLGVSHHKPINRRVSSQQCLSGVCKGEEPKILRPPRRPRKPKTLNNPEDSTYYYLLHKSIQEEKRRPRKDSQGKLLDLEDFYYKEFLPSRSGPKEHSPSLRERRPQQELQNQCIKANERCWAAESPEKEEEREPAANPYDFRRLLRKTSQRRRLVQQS
MLK3/MAP3K11, sequence (Q16584 whole entry): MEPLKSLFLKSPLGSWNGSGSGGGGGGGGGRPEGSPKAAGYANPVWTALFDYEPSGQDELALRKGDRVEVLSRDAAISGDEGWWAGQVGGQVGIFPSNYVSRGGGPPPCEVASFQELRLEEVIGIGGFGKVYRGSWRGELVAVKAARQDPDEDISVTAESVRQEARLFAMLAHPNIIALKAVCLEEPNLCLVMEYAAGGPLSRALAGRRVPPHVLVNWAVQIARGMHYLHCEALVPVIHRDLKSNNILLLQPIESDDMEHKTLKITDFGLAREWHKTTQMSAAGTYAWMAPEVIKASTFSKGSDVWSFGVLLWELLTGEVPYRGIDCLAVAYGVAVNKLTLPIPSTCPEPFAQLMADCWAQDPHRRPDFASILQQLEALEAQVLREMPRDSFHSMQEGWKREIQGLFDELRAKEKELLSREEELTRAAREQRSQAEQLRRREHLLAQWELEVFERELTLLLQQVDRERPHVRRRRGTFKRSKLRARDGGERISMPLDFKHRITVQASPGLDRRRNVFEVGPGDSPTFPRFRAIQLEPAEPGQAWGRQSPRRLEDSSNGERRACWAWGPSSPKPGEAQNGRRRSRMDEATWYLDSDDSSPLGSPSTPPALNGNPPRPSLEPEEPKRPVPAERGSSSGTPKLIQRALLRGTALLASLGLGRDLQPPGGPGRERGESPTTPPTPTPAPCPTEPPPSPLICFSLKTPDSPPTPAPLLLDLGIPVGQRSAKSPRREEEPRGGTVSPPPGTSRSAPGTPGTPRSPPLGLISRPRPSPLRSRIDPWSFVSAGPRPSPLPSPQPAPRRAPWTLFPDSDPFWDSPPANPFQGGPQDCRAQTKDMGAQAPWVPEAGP
SBK1, sequence (Q52WX2 whole entry): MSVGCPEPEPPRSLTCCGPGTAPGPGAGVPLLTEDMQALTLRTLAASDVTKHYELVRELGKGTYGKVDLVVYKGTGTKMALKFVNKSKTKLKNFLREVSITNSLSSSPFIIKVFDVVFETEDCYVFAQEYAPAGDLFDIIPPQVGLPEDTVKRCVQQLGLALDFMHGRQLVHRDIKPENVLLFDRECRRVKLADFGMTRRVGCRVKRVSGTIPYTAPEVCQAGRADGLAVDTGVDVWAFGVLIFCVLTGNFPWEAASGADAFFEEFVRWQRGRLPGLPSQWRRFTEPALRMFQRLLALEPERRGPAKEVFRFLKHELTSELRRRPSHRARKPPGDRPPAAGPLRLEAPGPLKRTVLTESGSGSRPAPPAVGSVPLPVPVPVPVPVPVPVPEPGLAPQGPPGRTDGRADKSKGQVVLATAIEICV
IRR/INSRR, sequence (P14616 27-1297): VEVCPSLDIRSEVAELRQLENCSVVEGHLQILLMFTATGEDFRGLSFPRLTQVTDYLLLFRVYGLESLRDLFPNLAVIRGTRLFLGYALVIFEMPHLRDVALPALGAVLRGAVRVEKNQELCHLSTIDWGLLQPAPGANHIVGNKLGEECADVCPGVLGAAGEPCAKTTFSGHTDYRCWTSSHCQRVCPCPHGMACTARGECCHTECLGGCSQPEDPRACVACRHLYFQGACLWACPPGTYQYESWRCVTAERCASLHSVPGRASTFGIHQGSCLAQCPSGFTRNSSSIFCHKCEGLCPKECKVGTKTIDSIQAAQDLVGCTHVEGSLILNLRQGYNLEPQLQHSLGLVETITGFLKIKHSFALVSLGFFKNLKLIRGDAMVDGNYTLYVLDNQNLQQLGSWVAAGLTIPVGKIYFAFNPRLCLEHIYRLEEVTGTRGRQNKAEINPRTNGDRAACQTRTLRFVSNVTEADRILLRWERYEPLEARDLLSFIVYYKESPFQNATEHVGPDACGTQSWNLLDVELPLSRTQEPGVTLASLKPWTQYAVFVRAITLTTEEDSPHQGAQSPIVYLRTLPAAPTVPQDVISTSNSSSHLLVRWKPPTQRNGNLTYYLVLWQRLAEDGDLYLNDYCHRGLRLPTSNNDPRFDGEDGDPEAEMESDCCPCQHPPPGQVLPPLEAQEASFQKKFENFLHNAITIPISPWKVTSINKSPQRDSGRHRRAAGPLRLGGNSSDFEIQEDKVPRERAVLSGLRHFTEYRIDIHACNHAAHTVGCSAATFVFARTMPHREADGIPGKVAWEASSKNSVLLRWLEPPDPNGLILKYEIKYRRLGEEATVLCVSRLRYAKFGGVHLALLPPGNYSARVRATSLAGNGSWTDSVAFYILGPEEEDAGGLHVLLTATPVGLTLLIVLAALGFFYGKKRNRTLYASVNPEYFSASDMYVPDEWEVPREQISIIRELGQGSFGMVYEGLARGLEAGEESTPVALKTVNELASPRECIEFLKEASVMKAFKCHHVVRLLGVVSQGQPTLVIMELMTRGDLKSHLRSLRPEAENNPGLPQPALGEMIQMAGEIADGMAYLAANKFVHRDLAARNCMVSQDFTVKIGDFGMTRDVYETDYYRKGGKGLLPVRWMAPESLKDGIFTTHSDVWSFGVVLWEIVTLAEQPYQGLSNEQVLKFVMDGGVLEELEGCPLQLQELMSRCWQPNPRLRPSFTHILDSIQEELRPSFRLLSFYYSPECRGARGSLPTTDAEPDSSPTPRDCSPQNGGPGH
CAMK2d, sequence (Q13557 whole entry): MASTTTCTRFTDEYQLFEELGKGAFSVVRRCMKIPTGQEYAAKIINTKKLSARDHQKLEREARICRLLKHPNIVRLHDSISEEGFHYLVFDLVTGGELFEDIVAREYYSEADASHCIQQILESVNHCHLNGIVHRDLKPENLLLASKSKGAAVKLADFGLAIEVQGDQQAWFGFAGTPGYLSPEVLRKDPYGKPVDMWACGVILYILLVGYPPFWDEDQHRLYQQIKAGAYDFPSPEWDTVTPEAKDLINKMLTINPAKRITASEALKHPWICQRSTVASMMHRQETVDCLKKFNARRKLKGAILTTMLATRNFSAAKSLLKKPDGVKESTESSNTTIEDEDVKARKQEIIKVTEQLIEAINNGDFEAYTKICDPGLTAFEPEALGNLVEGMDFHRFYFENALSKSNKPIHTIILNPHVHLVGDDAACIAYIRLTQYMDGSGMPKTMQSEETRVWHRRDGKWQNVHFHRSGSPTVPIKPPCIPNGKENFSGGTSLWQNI

For the compound `COc1cc(-c2cncc(-c3ccc(N4CCN(C)CC4)cc3)c2C)cc(F)c1C(N)=O` [Compound 26a, 2-Fluoro-6-methoxy-4-(4-methyl-5-(4-(4-methylpiperazin-1-yl)phenyl)pyridin-3-yl)benzamide], the remaining activity at 1 µM was 95.1% on CAMK2d; 94.6% on SBK1; 82.7% at CDK3/cyclin E; 84% on MYO3A; 110% on SSTK/TSSK6. Further, the “% enzyme activity” value on BRSK1 was 83.89%; at MYLK4, 95.79%; on IRAK1 it was 101.36%; on MLK3/MAP3K11, 99.32%; on IRR/INSRR, 99.85%; on VRK1 it was 100.69%. Further, the “% enzyme activity” value on STK21/CIT is reported as 84.42%. Also, in the assay with ALK3/BMPR1A, the % enzyme activity at 1 μM was 40.2% and 38.4%.

As for `COc1cc(-c2cncc(-c3ccc(N4C[C@@H](C)N(C)[C@@H](C)C4)cc3)c2C)cc(F)c1C(N)=O` [Compound 26c, 2-Fluoro-6-methoxy-4-(4-methyl-5-(4-((3R,5S)-3,4,5-trimethylpiperazin-1-yl)phenyl)pyridin-3-yl)benzamide], the remaining activity at 1 µM turned out to be 96.2% at CAMK2d; 103% at SBK1; 78.7% at CDK3/cyclin E; 94.7% at MYO3A; 98.2% on SSTK/TSSK6. For the same compound, the “% enzyme activity” value came out at 78.18% at BRSK1; 102.67% at MYLK4; 97.90% on IRAK1; 96.66% at MLK3/MAP3K11; 113.76% on IRR/INSRR; 98.74% on VRK1. Also, at STK21/CIT, the “% enzyme activity” value came to 84.97%. Moreover, the % enzyme activity at 1 μM in the assay on ALK3/BMPR1A is 50.5% and 50%.
